For data set [1], the system named is CCF-STTG1 cells. The data set can be described thus: LDH leakage in CCF-STTG1. The note with it: CCF-STTG1, 0.1 to 2.5 μM, 48 h. The format is cell-based, human. The method, then: For measurement of lactate dehydrogenase (LDH) leakage, cell lysates and treatment solutions (serum free medium with respective ENN B/B1 content) after incubation for 48 h were used. The cell lysates were prepared as described for caspase-3 activation assay. To determine the LDH activity, 15 μL of the lysate and 40 μL of the incubation medium were each added to 200 μL substrate buffer (100 mM HEPES, 10 mM sodium pyruvate and 0.21 mM NADH, adjusted to pH 7.0), incubated over the course of 30 min at 37°C and absorption was measured every 2 min at 355 nm in a Infinite M200 PRO microplate reader (Tecan, Crailsheim, Germany).

Data set [2] concerns PBCEC monolayer. The experiment in a line: Transfer across PBCEC monolayer on Transwell filters (BBB model). The format is in vitro ADME, porcine.
On the set-up of data set [3]: method as in PMID 24239892. The following applies: pigs, cited from earlier work.
Details of data set [4]: method as in PMID 27349679. The note with it: mice; cited from earlier work.
Details of data set [5]: method as in PMID 25757886. The following applies: ex vivo human skin; cited from earlier work.
Details of data set [6]: method as in PMID 21622627. The note with it: liver microsomes human, dog and rat; cited from earlier work. A general note: Liver microsomes are vesicles of endoplasmic reticulum, rich in cytochrome P450 enzymes.

For orientation: Tmax means the time at which the peak concentration occurs.

As for `CC[C@H](C)[C@H]1C(=O)O[C@H](C(C)C)C(=O)N(C)[C@@H](C(C)C)C(=O)O[C@H](C(C)C)C(=O)N(C)[C@@H](C(C)C)C(=O)O[C@H](C(C)C)C(=O)N1C` [ENN B1, enniatin B1], the LDH release entry in data set [1] is on record as “no significant increase of LDH release”. For the same compound, in data set [2], the “metabolites by high resolution mass spectrometry screening” value is “no metabolites were detected”. In data set [3] (oral), the Tmax is 14.4 min and the ka was 4.66 h⁻¹. Further, the oral bioavailability entry in data set [3] is listed as “up to 91%”. In addition, in data set [4], the “brain tissue distribution in the parenchyma” value was 95% and the “remaining in the capillaries” value is 5%.
Regarding `CC(C)[C@H]1C(=O)O[C@H](C(C)C)C(=O)N(C)[C@@H](C(C)C)C(=O)O[C@H](C(C)C)C(=O)N(C)[C@@H](C(C)C)C(=O)O[C@H](C(C)C)C(=O)N1C` [ENN B, enniatin B], the LDH release entry in data set [1] was “no significant increase of LDH release”. Further, the “permeation kp,v” value in data set [5] was 0.00262 ×10⁻⁶ cm/s. Further, in data set [4], the “brain tissue distribution in the parenchyma” value is 95% and the “remaining in the capillaries” value is 5%. Moreover, in data set [6], the metabolites formed result is “several phase I metabolites”.
